Target: T1, cloned human MC4R (Homo sapiens, UniProt P32245)
T1 construct: made in house; host or cells: Hi5 insect cells (baculovirus infection); membrane preparation
Assay: Membrane binding assay: competitive inhibition of [125I]NDP-α-MSH binding
Conditions: for inhibition at 10 µM / Displacement Rate (%) (at 10 μM): [125I]NDP-α-MSH displacement; for inhibition at 10 µM: read-out: Displacement Rate (%) (at 10 μM); for IC50: read-out: MC4R IC50

T1 sequence (P32245 whole entry): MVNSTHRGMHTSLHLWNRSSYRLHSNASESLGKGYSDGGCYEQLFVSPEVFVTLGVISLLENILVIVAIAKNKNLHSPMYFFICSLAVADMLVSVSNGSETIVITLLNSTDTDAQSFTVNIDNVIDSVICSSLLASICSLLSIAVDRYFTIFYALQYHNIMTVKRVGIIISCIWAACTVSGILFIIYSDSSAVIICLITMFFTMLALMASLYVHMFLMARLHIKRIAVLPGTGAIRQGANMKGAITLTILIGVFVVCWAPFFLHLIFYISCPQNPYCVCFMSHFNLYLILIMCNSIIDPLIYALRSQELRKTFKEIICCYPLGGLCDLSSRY

SMILES	inhibition at 10 µM [%]	IC50 [nM]	Displacement Rate (%) (at 10 μM)
N[C@@H](Cc1ccc(OCc2ccccc2)cc1)C(=O)N1CCCN(Cc2ccccc2Cl)CC1 [Example 57]	35 to 70	> 3000	–
N[C@@H](Cc1ccc(OCc2ccccc2)cc1)C(=O)N1CCN(Cc2ccc3ccccc3c2)CC1 [Example 105]	71 to 90	< 1500	–
N[C@@H](Cc1ccc(OCc2ccccc2)cc1)C(=O)N1CCCN(Cc2cc(OCc3ccccc3)cc(OCc3ccccc3)c2)CC1 [Example 12]	91 to 100	< 1500	–
N[C@@H](Cc1ccc(OCc2ccccc2)cc1)C(=O)N1CCN(CC(c2ccccc2)c2ccccc2)CC1 [Example 102]	91 to 100	1500 to 3000	–
N[C@@H](Cc1ccc(OCc2ccccc2)cc1)C(=O)N1CCCN(Cc2ccc(F)cc2)CC1 [Example 78]	35 to 70	> 3000	–
COc1cc(CN2CCN(C(=O)[C@@H](N)Cc3ccc(OCc4ccccc4)cc3)CC2)ccc1OCc1ccc([N+](=O)[O-])cc1 [Example 150]	35 to 70	1500 to 3000	–
N[C@@H](Cc1ccc(OCc2ccccc2)cc1)C(=O)N1CCN(Cc2ccco2)CC1 [Example 151]	35 to 70	> 3000	–
N[C@@H](Cc1ccc(OCc2ccccc2)cc1)C(=O)N1CCCN(Cc2ccncc2)CC1 [Example 76]	35 to 70	> 3000	–
COc1cc(CN2CCCN(C(=O)[C@@H](N)Cc3ccc(OCc4ccccc4)cc3)CC2)cc(Br)c1OC [Example 59]	35 to 70	> 3000	–
COc1cc(OC)c(CN2CCCN(C(=O)[C@@H](N)Cc3ccc(OCc4ccccc4)cc3)CC2)cc1Br [Example 31]	71 to 90	1500 to 3000	–
N[C@@H](Cc1ccc(OCc2ccccc2)cc1)C(=O)N1CCN(Cc2ccc(N(c3ccccc3)c3ccccc3)cc2)CC1 [Example 91]	91 to 100	< 1500	–
N[C@@H](Cc1ccc(OCc2ccccc2)cc1)C(=O)N1CCCN(Cc2ccc(OCc3ccc([N+](=O)[O-])cc3)cc2)CC1 [Example 27]	71 to 90	< 1500	–
N[C@@H](Cc1ccc(OCc2ccccc2)cc1)C(=O)N1CCCN(Cc2ccc([N+](=O)[O-])cc2)CC1 [Example 61]	35 to 70	> 3000	–

Second part, the compound after the results:

inhibition at 10 µM [%]	IC50 [nM]	Displacement Rate (%) (at 10 μM)	SMILES
35 to 70	> 3000	–	N[C@@H](Cc1ccc(OCc2ccccc2)cc1)C(=O)N1CCN(C2CCN(Cc3ccccc3)CC2)CC1 [Example 155]
91 to 100	< 1500	–	N[C@@H](Cc1ccc(-c2cccc3ccccc23)cc1)C(=O)N1CCN(Cc2cccc(Cl)c2Cl)CC1 [Example 300]
71 to 90	< 1500	–	CC(C)N[C@@H](Cc1ccc(OCc2ccccc2)cc1)C(=O)N1CCN(Cc2cccc(Cl)c2Cl)CC1 [Example 168]
91 to 100	< 1500	–	CN(C)CCCN[C@@H](Cc1ccc(OCc2ccccc2)cc1)C(=O)N1CCN(Cc2cccc(Cl)c2Cl)CC1 [Example 174]
91 to 100	< 1500	–	CCCCN[C@@H](Cc1ccc(OCc2ccccc2)cc1)C(=O)N1CCN(Cc2cccc(Cl)c2Cl)CC1 [Example 169]
–	1500 to 3000	+++ (+++ = 91-100)	Cc1ccc(C)c(COc2ccc(C[C@H](N)C(=O)N3CCN(Cc4cccc(Cl)c4Cl)CC3)cc2)c1 [Example 202]
91 to 100	1500 to 3000	–	N[C@@H](Cc1ccc(-c2cc(Cl)cc(Cl)c2)cc1)C(=O)N1CCN(Cc2cccc(Cl)c2Cl)CC1 [Example 312]
–	< 1500	+++ (+++ = 91-100)	N[C@@H](Cc1ccc(OCc2cc(Cl)ccc2Cl)cc1)C(=O)N1CCN(Cc2cccc(Cl)c2Cl)CC1 [Example 212]
–	< 1500	+++ (+++ = 91-100)	N[C@@H](Cc1ccc(OCc2cccc(Br)c2)cc1)C(=O)N1CCN(Cc2cccc(Cl)c2Cl)CC1 [Example 197]
–	> 3000	–	N[C@@H](Cc1ccc(Oc2ccccc2)cc1)C(=O)N1CCN(Cc2cccc(Cl)c2Cl)CC1 [Example 344]

Source: US6916812B2, “Alpha-aminoamide derivatives as melanocortin agonists” (Bristol-Myers Squibb Company, priority 2001, dated 2005)
